Test results from patent US20050096370A1, “Method for inhibiting tumor angiogenesis and tumor growth” (Bizbiotech Co., Ltd., priority 2003, published 2005).

Key:
[1] = tested on: HIF-1-regulated genes (VEGF, aldolase A, and enolase 1); experiment: semi-quantitative RT-PCR of HIF-1α and HIF-1-regulated gene mRNA in Hep3B cells; format: cell-based, human; details: 16 hours
Description: FIG. 2 is an autoradiograph showing mRNA levels of VEGF, aldolase A, enolase 1, HIF-1α, and β-actin.
Immunoblotting was used to detect HIF-1 protein in cultured cells, as described (Chun et al., Biochem Pharmacol 2001 61:947-954). Cells were centrifuged at 3000 rpm for 5 minutes at VC and then washed twice with ice-cold phosphate buffered saline (PBS). Cells were then resuspended in ten packed cell volumes of alysis buffer consisting of 10 mM Tris, pH 7.4, 130 mM NaCl, 2 mM EDTA, 1% Nonidet P-40, 0.5 mM dithiothreitol, and 0.5 mM phenylmethylsulfonyl fluoride. […] To quantify mRNAs for HIF-1α and HIF-1-regulated genes, we performed a highly sensitive, semi-quantitative reverse transcription-polymerase chain reaction (RT PCR), as described previously (Chun et al., J Cell Sci 2001 114:4051-4061). […] P-actin mRNA was measured as a PCR control. […] To assess whether the VEGF mRNA levels affected levels of VEGF protein secreted into the medium, we measured VEGF protein levels in Hep3B cell-conditioned medium. […] VEGF levels in the conditioned media were quantified by using the Quantikine human VEGF Immunoassay kit (R&D Systems, Minneapolis, Minn.) according to the manufacturer's recommended protocol. The VEGF concentrations were quantified by comparison with a series of VEGF standard samples included in the assay kit. […]

VEGF = VEGF mRNA RT-PCR in NCI-H87, SiHa, SK-N-MC and Caki-1 cells under hypoxia; format: cell-based, human; details: Caki-1 cells, hypoxic, 16 hours
Description: FIG. 5 is an autoradiograph showing mRNA levels of VEGF and β-actin in cancer cells of different origin.
Levels of HIF-1α and β-actin proteins were analyzed by immunoblot analysis using a rabbit anti-HIF-1α antibody or a rabbit anti-p-actin antibody. Proteins were visualized by enhanced chemiluminescence.

[2] = tested on: natural killer (NK) cell activity; experiment: NK cell activity of splenic lymphocytes incubated with YC-1 in vitro (51Cr release from YAC-1 cells); format: cell-based, nude mice; details: 24 hours
Description: The lymphocytes were then incubated at the indicated effectontarget cell (E:T) ratios with ^51Cr-labeled YAC-1 cells (1×10^4). After 4 hours, the amount of radioactivity in the culture supernatants was measured with a gamma counter. […] Splenic lymphocytes were then isolated and tested for NK cell activity. The result is expressed as the mean of four separate experiments with 95% confidence intervals.
The quality of the extracted RNAs was verified by identifying the 18S ribosomal RNA (rRNA) on a 1% denaturing agarose gel. VEGF, aldolase A and enolase 1 mRNA levels were also lower in YC-1-treated tumors than in vehicle-treated tumors one experiment. Results are expressed as the mean and 95% confidence intervals of 4 separate experiments.
Splenic lymphocytes were isolated from each mouse and tested immediately for NK cell activity. The spontaneous release of ^51Cr from YAC-1 cells was usually lower than 10% of the total ^51Cr loaded. NK cell activity was calculated as follows: {(experimental release−spontaneous release)/(total release−spontaneous release)}×100. Each assay was repeated three times and the average value is the result from one experiment. Results are expressed as the mean and 95% confidence intervals of 4 separate experiments.

OCc1ccc(-c2nn(Cc3ccccc3)c3ccccc23)o1 [YC-1, 3-(5′-hydroxymethyl-2′-furyl)-1-benzylindazole]
HIF-1α mRNA level [1]: relatively unchanged | expression of HIF-1-regulated genes (VEGF, aldolase A, and enolase 1) mRNA ([1]; hypoxic): dose dependently decreased | level of VEGF mRNA (VEGF): dose-dependently inhibited | cytolytic activity against YAC-1 cells versus lymphocytes incubated without YC-1 [2]: comparable
